Experimental data as given in patent US20240083920A1, “LOW MOLECULAR WEIGHT CORROLE COMPOSITIONS” (TECHNION RESEARCH & DEVELOPMENT FOUNDATION LTD, priority 2021, published 2024).

Experiment: Stability in solution / on storage
Conditions: in solution / ambient conditions

Question: Which stability does the source give for `C1=Cc2cc3ccc([nH]3)c3ccc(cc4ccc(cc1n2)[nH]4)[nH]3` [H3(cor)] here?
Answer: Its stability is “stability was limited due to ambient humidity and light conditions”.
